Tested on: 439559-082-T-J2-PDC complex spheroid growth
Assay: Anticancer human tumor 439559-082-T-J2-PDC patient-derived colon adenocarcinoma cell line growth inhibition [Asc]
Settings: for IC50: curve of first compound; for viability, T/C: stronger effect = lower value
Method in brief: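 Tumor cells were grown as complex spheroids with human endothelial cells (HUVEC) and human mesenchymal stem cells as stroma. Agents were tested alone and in combination, in half-log steps down from the clinical Cmax, or from 10 microM where Cmax was unknown.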
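Further: spheroids exposed to agents for 7 days starting day 3 after seeding.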
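Wherever viability, T/C is given: percent of DMSO vehicle control viability with 100% = vehicle.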

`C#Cc1c(F)ccc2cc(O)cc(-c3ncc4c(N5CC6CCC(C5)N6)nc(OCC56CCCN5CC(F)C6)nc4c3F)c12` (stereo not given) + CCN1C(C(=O)NC23CCC(C(=O)O)(CC2)CC3)C(c2cccc(Cl)c2F)C2(C(=O)Nc3cc(Cl)ccc32)C12CCCCC2 was tested, and the IC50 (second compound 0.03 µM) was 1160 nM, the IC50 (second compound 0.0949 µM) was 2200 nM and the IC50 (second compound 0.3 µM) was 1630 nM. For the same compound, the IC50 (second compound 0.949 µM) was 2190 nM, the IC50 (second compound 3 µM) was 593 nM and the viability, T/C (second compound 0.03 µM, first compound 0.0316 µM) was 88%. The viability, T/C (second compound 0.03 µM, first compound 0.1 µM) was 81.7%, the viability, T/C (second compound 0.03 µM, first compound 0.316 µM) was 64% and the viability, T/C (second compound 0.03 µM, first compound 1 µM) was 50%. For the same compound, the viability, T/C (second compound 0.03 µM, first compound 3.16 µM) was 48.4%, the viability, T/C (second compound 0.03 µM, first compound 10 µM) was 40% and the viability, T/C (second compound 0.0949 µM, first compound 0.0316 µM) was 88.8%. It also gave a viability, T/C (second compound 0.0949 µM, first compound 0.1 µM) of 84.8%, a viability, T/C (second compound 0.0949 µM, first compound 0.316 µM) of 74.5% and a viability, T/C (second compound 0.0949 µM, first compound 1 µM) of 55.2%. For the same compound, the viability, T/C (second compound 0.0949 µM, first compound 3.16 µM) was 49.7%, the viability, T/C (second compound 0.0949 µM, first compound 10 µM) was 36.2% and the viability, T/C (second compound 0.3 µM, first compound 0.0316 µM) was 88.5%. The viability, T/C (second compound 0.3 µM, first compound 0.1 µM) was 83.5%, the viability, T/C (second compound 0.3 µM, first compound 0.316 µM) was 73.4% and the viability, T/C (second compound 0.3 µM, first compound 1 µM) was 51.2%. The viability, T/C (second compound 0.3 µM, first compound 3.16 µM) was 49.3%, the viability, T/C (second compound 0.3 µM, first compound 10 µM) was 39.3% and the viability, T/C (second compound 0.949 µM, first compound 0.0316 µM) was 103%. For the same compound, the viability, T/C (second compound 0.949 µM, first compound 0.1 µM) was 80.8%, the viability, T/C (second compound 0.949 µM, first compound 0.316 µM) was 72.8% and the viability, T/C (second compound 0.949 µM, first compound 1 µM) was 55.7%. For the same compound, the viability, T/C (second compound 0.949 µM, first compound 3.16 µM) was 48.2%, the viability, T/C (second compound 0.949 µM, first compound 10 µM) was 36.9% and the viability, T/C (second compound 3 µM, first compound 0.0316 µM) was 73.6%. The viability, T/C (second compound 3 µM, first compound 0.1 µM) was 74.3%, the viability, T/C (second compound 3 µM, first compound 0.316 µM) was 56.6% and the viability, T/C (second compound 3 µM, first compound 1 µM) was 45.2%. For the same compound, the viability, T/C (second compound 3 µM, first compound 3.16 µM) was 44.9% and the viability, T/C (second compound 3 µM, first compound 10 µM) was 37.8%.

With `Cc1nc(N2CCC3(CC2)COC(C)C3N)c(CO)nc1Sc1ccnc(N)c1Cl` (stereo not given) + CCN1C(C(=O)NC23CCC(C(=O)O)(CC2)CC3)C(c2cccc(Cl)c2F)C2(C(=O)Nc3cc(Cl)ccc32)C12CCCCC2 the IC50 (second compound 0.03 µM) was > 3000 nM, the IC50 (second compound 0.0949 µM) was > 3000 nM and the IC50 (second compound 0.3 µM) was > 3000 nM. For the same compound, the IC50 (second compound 0.949 µM) was > 3000 nM, the IC50 (second compound 3 µM) was > 3000 nM and the viability, T/C (second compound 0.03 µM, first compound 0.00949 µM) was 109%. For the same compound, the viability, T/C (second compound 0.03 µM, first compound 0.03 µM) was 110%, the viability, T/C (second compound 0.03 µM, first compound 0.0949 µM) was 106% and the viability, T/C (second compound 0.03 µM, first compound 0.3 µM) was 91.6%. For the same compound, the viability, T/C (second compound 0.03 µM, first compound 0.949 µM) was 91.7%, the viability, T/C (second compound 0.03 µM, first compound 3 µM) was 80.3% and the viability, T/C (second compound 0.0949 µM, first compound 0.00949 µM) was 107%. It also gave a viability, T/C (second compound 0.0949 µM, first compound 0.03 µM) of 109%, a viability, T/C (second compound 0.0949 µM, first compound 0.0949 µM) of 114% and a viability, T/C (second compound 0.0949 µM, first compound 0.3 µM) of 93.7%. The viability, T/C (second compound 0.0949 µM, first compound 0.949 µM) was 86.9%, the viability, T/C (second compound 0.0949 µM, first compound 3 µM) was 86.1% and the viability, T/C (second compound 0.3 µM, first compound 0.00949 µM) was 106%. The viability, T/C (second compound 0.3 µM, first compound 0.03 µM) was 111%, the viability, T/C (second compound 0.3 µM, first compound 0.0949 µM) was 105% and the viability, T/C (second compound 0.3 µM, first compound 0.3 µM) was 87.8%. It also gave a viability, T/C (second compound 0.3 µM, first compound 0.949 µM) of 91.2%, a viability, T/C (second compound 0.3 µM, first compound 3 µM) of 81.2% and a viability, T/C (second compound 0.949 µM, first compound 0.00949 µM) of 103%. It also gave a viability, T/C (second compound 0.949 µM, first compound 0.03 µM) of 113%, a viability, T/C (second compound 0.949 µM, first compound 0.0949 µM) of 115% and a viability, T/C (second compound 0.949 µM, first compound 0.3 µM) of 93.5%. The viability, T/C (second compound 0.949 µM, first compound 0.949 µM) was 93.2%, the viability, T/C (second compound 0.949 µM, first compound 3 µM) was 82.2% and the viability, T/C (second compound 3 µM, first compound 0.00949 µM) was 89.5%. The viability, T/C (second compound 3 µM, first compound 0.03 µM) was 96%, the viability, T/C (second compound 3 µM, first compound 0.0949 µM) was 97.4% and the viability, T/C (second compound 3 µM, first compound 0.3 µM) was 87.8%. For the same compound, the viability, T/C (second compound 3 µM, first compound 0.949 µM) was 77.9% and the viability, T/C (second compound 3 µM, first compound 3 µM) was 82.7%.

From PubChem BioAssay AID1963423 (Molecular Pharmacology Branch, DTP, NCI, 2024)
